# Values quoted from earlier work, collected in patent publication US8921361B2, “Triazine, pyrimidine and pyridine analogs and their use as therapeutic agents and diagnostic probes” (University of Basel, priority 2008, dated 2014).
# Tested on: human cancer xenografts
compound,measurement,setting,value
FC(F)c1nc2ccccc2n1-c1nc(N2CCOCC2)nc(N2CCOCC2)n1 [ZSTK474],toxicity in xenograft mice,"mouse, in vivo, po",without evidence of critical toxicity
same,antitumor activity against human cancer xenografts in mice,"orally administered, Yaguchi et al. 2006",potent antitumor activity
